Experimental data published in patent US10611750B2, “Tetrahydroquinoline compositions as bet bromodomain inhibitors” (FORMA Therapeutics, Inc., priority 2013, dated 2020).

Experiments:
[1] = molecular target: T1, BRD4 Bromodomain 1 (BRD4 BD1) (Homo sapiens, UniProt O60885); assay: AlphaScreen binding assay, BRD4 BD1; settings: His-tagged BRD4 BD1 50 nM, biotinylated H4 (1-21) K5/8/12/16 tetra-acetylated peptide 50 nM, compounds listed under IC50 range headings
T1 construct: 44-168 and BRD4 BD2
Method: The binding of Example compounds to BRD4 Bromodomain 1 and BRD4 Bromodomain 2 was assessed using 384-well AlphaScreen assay technology. His-epitope tagged BRD4 BD144-168 and BRD4 BD2333-460 were cloned, expressed, and purified to homogeneity. BRD4 BD1 and BRD4 BD2 binding and inhibition was assessed by monitoring the engagement of biotinylated Histone H4 (1-21) K5/8/12/16 tetra-acetylated peptide with the targets using the AlphaScreen technology (PerkinElmer). Specifically, in a 384-well black or white flat bottom plate, BRD4 BD1 (50 nM final) or BRD4 BD2 (100 nM final) was combined with peptide (50 nM final for BD1 or 100 nM final for BD2) in 50 mM HEPES (pH 7.3), 100 mM NaCl, 0.1% (w/v) BSA, and 0.01% (w/v) Triton X-100 either in the presence of DMSO (final 1.25% DMSO) or compound dilution series in DMSO. Alpha streptavidin donor beads and Nickel-chelate acceptor beads were added to a final concentration of 10 μg/ml each. After a minimum of 1 hour equilibration, plates were read on a BMG PHERAstar FS multi-label reader (BMG LabTech). The half maximal inhibitory concentration (IC50) values were calculated using IDBS Activity Base software with a four parameter logistic curve fit by the equation y=A+((B−A)/(1+((C/x)^D))), wherein A denotes the bottom plateau of the curve, B denotes the top plateau of the curve, C denotes the x value at the middle of the curve, D denotes the slope factor, x denotes the original known x values, and y denotes the original known y values. Data was fitted using the Levenburg Marquardt algorithm.

[2] = tested on: acute myelocytic leukemia (AML) cell line MV4-11; assay: Oncology cell growth assay (3-day proliferation, CellTiter-Glo); type: cell-based; settings: Homo sapiens, MV4-11, 72 h, MV4-11 cells, 3000 cells/well, compounds listed under IC50 range headings, read-out: MV411 IC50 (gIC50, inhibition of proliferation)
Method: The impact of Example compounds on cancer cell proliferation was determined using the acute myelocytic leukemia (AML) cell line MV4-11 (ATCC) in a 3-day proliferation assay. MV4-11 cells were maintained in RPMI 1640 media supplemented with 10% FBS at 37° C. and an atmosphere of 5% CO2. For compound testing, compound dilutions series were prepared in DMSO via a 3-fold serial dilution from 2 mM to 0.001 mM in 384-well white flat bottom plates. The final compound concentrations in the wells were 10, 3.3, 1.1, 0.37, 0.12, 0.041, 0.013 and 0.0045 μM. MV4-11 cells were plated at a density of 3000 cells/well in final volume of 50 μl culture media and incubated for 72 hours. […] Luminescent signal from the CellTiter-Glo assay was read on an EnVision multilabel plate reader (PerkinElmer). Values for the concentration that inhibited cell growth by 50% (gIC50) between the DMSO control and background control (no cells) were determined using IDBS Activity Base software with a four parameter logistic curve fit by the equation y=A+((B−A)/(1+((C/x)^D))), wherein A denotes the bottom plateau of the curve, B denotes the top plateau of the curve, C denotes the x value at the middle of the curve, D denotes the slope factor, x denotes the original known x values, and y denotes the original known y values. Data was fitted using the Levenburg Marquardt algorithm.

Row | Structure (SMILES) | IC50 [1] | IC50 [2]
1 | COC(=O)N1c2ccc(-c3csc(NC(C)=O)n3)c(OC3CCC3)c2CC[C@@H]1C [I-131, (S)-methyl 6-(2-acetamidothiazol-4-yl)-5-cyclobutoxy-2-methyl-3,4-dihydroquinoline-1(2H)-carboxylate] | 1000 to 10000 nM | 500 to 1000 nM
2 | C[C@H]1CCc2c(ccc(-c3cnn(C4CC4)c3NS(C)(=O)=O)c2OC2CCC2)N1C(=O)C1CC1 [I-300, N-(4-((2S)-5-cyclobutoxy-1-(cyclopropanecarbonyl)-2-methyl-1,2,3,4-tetrahydroquinolin-6-yl)-1-cyclopropyl-1H-pyrazol-5-yl)methanesulfonamide] | ≥ 10000 nM | > 1000 nM
3 | COC(=O)N1c2ccc(-c3csc(N4CCNCC4)n3)c(OC3CCC3)c2CC[C@@H]1C [I-316, (S)-methyl 5-cyclobutoxy-2-methyl-6-(2-(piperazin-1-yl)thiazol-4-yl)-3,4-dihydroquinoline-1(2H)-carboxylate] | 100 to 1000 nM | < 500 nM
4 | C[C@H]1CCc2c(ccc(-c3cn(C)cn3)c2OC2CCC2)N1C(=O)C1CC1 [I-57, (S)-(5-cyclobutoxy-2-methyl-6-(1-methyl-1H-imidazol-4-yl)-3,4-dihydroquinolin-1(2H)-yl)(cyclopropyl)methanone] | 100 to 1000 nM | < 500 nM
5 | COC(=O)N1c2ccc(-c3csc(C(N)=O)n3)c(OC3CCC3)c2CC[C@@H]1C [I-129, (S)-methyl-6-(2-carbamoylthiazol-4-yl)-5-cyclobutoxy-2-methyl-3,4-dihydroquinoline-1(2H)-carboxylate] | 100 to 1000 nM | < 500 nM
6 | C[C@H]1CCc2c(ccc(-c3cnn(C4CCNCC4)n3)c2OC2CCC2)N1C(=O)C1CC1 [I-309, (S)-(5-cyclobutoxy-2-methyl-6-(2-(piperidin-4-yl)-2H-1,2,3-triazol-4-yl)-3,4-dihydroquinolin-1(2H)-yl)(cyclopropyl)methanone] | 1000 to 10000 nM | < 500 nM
7 | COC(=O)N1c2c(F)cc(-c3cnn(C4CC4)c3)c(OC3CCC3)c2CC[C@@H]1C [I-71, (S)-methyl 5-cyclobutoxy-6-(1-cyclopropyl-1H-pyrazol-4-yl)-8-fluoro-2-methyl-3,4-dihydroquinoline-1(2H)-carboxylate] | 100 to 1000 nM | 500 to 1000 nM
8 | COC(=O)N1c2c(F)cc(-c3cnn(C4CCNCC4)c3)c(OC3CCC3)c2CC[C@@H]1C [I-110, (S)-methyl 5-cyclobutoxy-8-fluoro-2-methyl-6-(1-(piperidin-4-yl)-1H-pyrazol-4-yl)-3,4-dihydroquinoline-1(2H)-carboxylate] | 100 to 1000 nM | < 500 nM
9 | C[C@H]1CCc2c(ccc(-c3cnn4c3NCC4)c2OC2CCC2)N1C(=O)C1CC1 [I-278, ((2S)-5-cyclobutoxy-6-(2,3-dihydro-1H-pyrazolo[1,5-a]imidazol-7-yl)-2-methyl-3,4-dihydroquinolin-1(2H)-yl)(cyclopropyl)methanone] | 100 to 1000 nM | < 500 nM
10 | COC(=O)N1c2ccc(-c3csc(C4(O)CCNCC4)n3)c(OC3CCC3)c2CC[C@@H]1C [I-280, methyl (S)-5-cyclobutoxy-6-(2-(4-hydroxypiperidin-4-yl)thiazol-4-yl)-2-methyl-3,4-dihydroquinoline-1(2H)-carboxylate] | 1000 to 10000 nM | < 500 nM
11 | C[C@H]1CCc2c(ccc(-c3cn[nH]c3)c2OC2CCC2)N1C(=O)C1CC1 [I-54, (S)-(5-cyclobutoxy-2-methyl-6-(1H-pyrazol-4-yl)-3,4-dihydroquinolin-1 (2H)-yl)(cyclopropyl)methanone] | 100 to 1000 nM | < 500 nM

The remaining lines, values ahead:

Row | IC50 [1] | IC50 [2] | Structure (SMILES)
12 | 100 to 1000 nM | < 500 nM | C[C@H]1CCc2c(ccc(-c3cnn(C4CNC4)c3)c2Oc2ccc(F)c(F)c2)N1C(=O)C1CC1 [I-174, (S)-(6-(1-(azetidin-3-yl)-1H-pyrazol-4-yl)-5-(3,4-difluorophenoxy)-2-methyl-3,4-dihydroquinolin-1(2H)-yl)(cyclopropyl)methanone]
13 | 100 to 1000 nM | < 500 nM | COC(=O)N1c2ccc(-c3cnn(C4CS(=O)(=O)C4)c3)c(Oc3ccc(F)cc3)c2CC[C@@H]1C [I-223, methyl (S)-6-(1-(1,1-dioxidothietan-3-yl)-1H-pyrazol-4-yl)-5-(4-fluorophenoxy)-2-methyl-3,4-dihydroquinoline-1(2H)-carboxylate]
14 | 100 to 1000 nM | < 500 nM | COC(=O)N1c2ccc(-c3cnn(C4CCCS(=O)(=O)C4)c3)c(Oc3ccc(F)cc3)c2CC[C@@H]1C (stereo partly drawn) [I-222, Methyl (2S)-6-(1-(1,1-dioxidotetrahydro-2H-thiopyran-3-yl)-1H-pyrazol-4-yl)-5-(4-fluorophenoxy)-2-methyl-3,4-dihydroquinoline-1 (2H)-carboxylate]
15 | ≥ 10000 nM | > 1000 nM | CC#Cc1ccc2c(c1Oc1ccccc1)CC[C@H](C)N2C(=O)C1CC1 [I-347, (S)-cyclopropyl(2-methyl-5-phenoxy-6-(prop-1-ynyl)-3,4-dihydroquinolin-1(2H)-yl)methanone]
16 | 100 to 1000 nM | < 500 nM | C[C@H]1CCc2c(ccc(-c3cnn(C4CCCS(=O)(=O)C4)c3)c2Oc2ccccc2)N1C(=O)C1CC1 (stereo partly drawn) [I-294, 3-{4-[(2S)-1-cyclopropanecarbonyl-2-methyl-5-phenoxy-1,2,3,4-tetrahydroquinolin-6-yl]-1H-pyrazol-1-yl}-1λ^6-thiane-1,1-dione]
17 | 100 to 1000 nM | < 500 nM | COc1cccc(Oc2c(-c3cnn(C4CCNCC4)c3)cc(F)c3c2CC[C@H](C)N3C(=O)C2CC2)c1 [I-207, (S)-cyclopropyl(8-fluoro-5-(3-methoxyphenoxy)-2-methyl-6-(1-(piperidin-4-yl)-1H-pyrazol-4-yl)-3,4-dihydroquinolin-1(2H)-yl)methanone]
18 | 100 to 1000 nM | < 500 nM | COC(=O)N1c2ccc(-c3cnn(C4CNC4)c3)c(Oc3ccc(F)cc3F)c2CC[C@@H]1C [I-266, (S)-methyl 6-(1-(azetidin-3-yl)-1H-pyrazol-4-yl)-5-(2,4-difluorophenoxy)-2-methyl-3,4-dihydroquinoline-1(2H)-carboxylate]
19 | < 100 nM | < 500 nM | C[C@H]1CCc2c(ccc(-c3cnn(C4CCNCC4)n3)c2Oc2ccccc2)N1C(=O)C1CC1 [I-311, (S)-cyclopropyl(2-methyl-5-phenoxy-6-(2-(piperidin-4-yl)-2H-1,2,3-triazol-4-yl)-3,4-dihydroquinolin-1(2H)-yl)methanone]
20 | 100 to 1000 nM | < 500 nM | COC(=O)N1c2ccc(-c3cnn(C4CNC4)c3)c(Oc3cccc(Cl)c3)c2CC[C@@H]1C [I-177, (S)-methyl 6-(1-(azetidin-3-yl)-1H-pyrazol-4-yl)-5-(3-chlorophenoxy)-2-methyl-3,4-dihydroquinoline-1(2H)-carboxylate]
21 | 100 to 1000 nM | < 500 nM | C[C@H]1CCc2c(ccc(-c3cn(C)nn3)c2Oc2ccccc2)N1C(=O)C1CC1 [I-219, (S)-cyclopropyl(2-methyl-6-(1-methyl-1H-1,2,3-triazol-4-yl)-5-phenoxy-3,4-dihydroquinolin-1(2H)-yl)methanone]
22 | 100 to 1000 nM | < 500 nM | COC(=O)N1c2ccc(-c3cnn(C4CNC4)c3)c(Oc3ccc(F)c(F)c3)c2CC[C@@H]1C [I-192, (S)-methyl 6-(1-(azetidin-3-yl)-1H-pyrazol-4-yl)-5-(3,4-difluorophenoxy)-2-methyl-3,4-dihydroquinoline-1(2H)-carboxylate]
23 | 100 to 1000 nM | < 500 nM | CC(=O)N1c2ccc(-c3cnn(C4CC4)c3)c(OCC(C)C)c2CC[C@@H]1C [I-394]
24 | ≥ 10000 nM | > 1000 nM | C#Cc1ccc2c(c1Oc1ccccc1)CC[C@H](C)N2C(=O)OC [I-346, (S)-methyl 6-ethynyl-2-methyl-5-phenoxy-3,4-dihydroquinoline-1(2H)-carboxylate]
